Results: paper PMC7251097, “Aspartate/asparagine-β-hydroxylase: a high-throughput mass spectrometric assay for discovery of small molecule inhibitors” (Scientific Reports, 2020)
Structures can show the parent of a compound that is named as a salt. Where two headings read alike, the source gives them in different places.

Target: T1, His6-AspH315–758 (human aspartate/asparagine-β-hydroxylase, AspH) (Homo sapiens, UniProt Q12797)
T1 construct: N-Terminally His6-tagged human AspH315–758 (His6-AspH315–758) was produced in E. coli BL21 (DE3) cells; made in house; host or cells: E. coli BL21 (DE3), pET-28a(+) vector
T1 sequence (Q12797 315-758): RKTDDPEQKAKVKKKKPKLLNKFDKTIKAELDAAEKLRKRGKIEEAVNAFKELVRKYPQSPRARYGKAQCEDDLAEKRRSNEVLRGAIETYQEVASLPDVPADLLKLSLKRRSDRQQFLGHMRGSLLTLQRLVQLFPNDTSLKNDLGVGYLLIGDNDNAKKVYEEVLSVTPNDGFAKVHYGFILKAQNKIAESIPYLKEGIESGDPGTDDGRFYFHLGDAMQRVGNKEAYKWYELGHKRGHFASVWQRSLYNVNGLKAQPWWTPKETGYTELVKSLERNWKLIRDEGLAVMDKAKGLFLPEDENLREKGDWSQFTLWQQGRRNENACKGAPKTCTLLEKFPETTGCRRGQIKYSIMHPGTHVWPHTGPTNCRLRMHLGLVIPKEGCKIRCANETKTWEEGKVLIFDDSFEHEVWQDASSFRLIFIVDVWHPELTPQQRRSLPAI
Assay: SPE-MS AspH inhibition assay (LOPAC screen at fixed 20 μM and IC50 dose-response), hydroxylation of cyclic peptide hFX-CP101–119
Format: biochemical

[1] = LOPAC Plate 4, compound at 20 uM
[2] = LOPAC Plate 4, compound at 20 uM, substrate conversion
[3] = LOPAC compound at fixed 20 uM, plate 1, normalised to DMSO and 2,4-PDCA controls
[4] = LOPAC compound at fixed 20 uM, substrate conversion, plate 1

Structure (SMILES)	Plate 1 (% inhibition) [3] [%]	Plate 1 (% conversion) [4] [%]	further results
CC(C)(C)c1ccc(/C=C/C(=O)Nc2ccc3c(c2)OCCO3)cc1 [AMG 9810]	–	–	% inhibition [1]: 5.34%; % conversion [2]: 34.65%
O=C(Nc1ccccc1C(=O)NC1CCCCNC1=O)c1cc2ccccc2s1 (centres unmarked) [ANA-12]	–	–	% conversion [2]: 32.70%
CCN(CC)c1ncnc2c1ncn2[C@@H]1O[C@H](COP(=O)([O-])OP(=O)([O-])C(Br)(Br)P(=O)([O-])O)[C@@H](O)[C@H]1O.[Na+].[Na+].[Na+] [ARL 67156 trisodium salt]	82.09	8.30	–
O=C(N/N=C/c1c(O)ccc2ccccc12)c1ccncc1 [AS-8351, reference compound]	–	–	IC50 (50 nM His6-AspH315–758, 1.0 μM hFX-CP101–119, 3 μM 2OG, 2 μM Fe(II), 50 mM HEPES pH 7.5, 20 °C, mean ± SD, n = 2 (2,4-PDCA n = 10), read-out: IC50): 3.07 ± 0.43 µM
O=C1NC(=O)/C(=C/c2ccc(-c3ccc(F)cc3O)o2)S1 [AS-252424]	-9.30	39.00	–
CC(C)(C)c1o[nH]c(=O)c1CC(N)C(=O)O (centres unmarked) [ATPA]	–	–	Plate 1 (% conversion): 36.48%; Plate 1 (% inhibition): -1.82%
CC(=O)c1ccc2c(c1)N(CCCN(C)C)c1ccccc1S2 [Acepromazine maleate]	–	–	% conversion [2]: 29.56%
CC(N)=O [Acetamide]	0.92	35.56	–
CC(=O)Nc1nnc(S(N)(=O)=O)s1 [Acetazolamide]	9.71	32.61	–
CC(=O)c1ccc(S(=O)(=O)NC(=O)NC2CCCCC2)cc1 [Acetohexamide]	-6.36	38.01	–
CC(=O)OC(C)C[N+](C)(C)C.[Cl-] (stereo not drawn) [Acetyl-beta-methylcholine chloride]	-15.64	41.13	–
CC(=O)Oc1ccccc1C(=O)O [Acetylsalicylic acid]	-0.51	36.04	–
CC(=O)SCC[N+](C)(C)C.[Cl-] [Acetylthiocholine chloride]	–	–	Plate 1 (% conversion): 37.52%; Plate 1 (% inhibition): -4.90%
CCN1C[C@]2(COC)[C@H](O)C[C@H](OC)[C@@]34[C@@H]5C[C@@]6(O)[C@H](OC(=O)c7ccccc7)[C@@H]5[C@@](OC(C)=O)([C@@H]([C@H](OC)[C@H]23)[C@@H]14)[C@@H](O)[C@@H]6OC [Aconitine]	–	–	Plate 1 (% conversion): 40.69%; Plate 1 (% inhibition): -14.35%
CCCCC[C@H](CC(=O)NO)C(=O)N[C@H](C(=O)N1CCC[C@H]1CO)C(C)C [Actinonin]	-5.32	37.66	–
Nc1nc2c(ncn2COCCO)c(=O)[nH]1 [Acyclovir]	-3.39	37.01	–
Nc1ncnc2c1ncn2[C@@H]1O[C@H](CO)[C@@H](O)[C@H]1O [Adenosine]	4.27	34.44	–
NCCCCN=C(N)N [Agmatine sulfate]	-2.35	–	Plate 1 (% conversion): 36.66%
COc1ccc2cccc(CCNC(C)=O)c2c1 [Agomelatine]	–	–	Plate 3 (% conversion) (LOPAC compound at 20uM, plate 3, conversion of substrate peptide): 37.59%
CC(C)(C)NCC(O)c1ccc(O)c(CO)c1.CC(C)(C)NCC(O)c1ccc(O)c(CO)c1.O=S(=O)(O)O (centres unmarked) [Albuterol hemisulfate]	–	–	% conversion [2]: 30.81%
COc1cc2nc(N(C)CCCNC(=O)C3CCCO3)nc(N)c2cc1OC (centres unmarked) [Alfuzosin hydrochloride]	-12.38	40.03	–
O=c1nc2[nH]c3ccccc3nc-2c(=O)[nH]1 [Alloxazine]	-13.62	40.45	–
C=CCc1ccccc1OCC(O)CNC(C)C (centres unmarked) [Alprenolol hydrochloride]	-9.33	39.00	–
CN(C)c1nc(N(C)C)nc(N(C)C)n1 [Altretamine]	-0.35	35.99	–
NC12CC3CC(CC(C3)C1)C2 [Amantadine hydrochloride]	-1.83	36.49	–
NCCCNCCSP(=O)(O)O [Amifostine]	-14.28	–	Plate 1 (% conversion): 40.67%
N=C(N)NC(=O)c1nc(Cl)c(N)nc1N [Amiloride hydrochloride]	4.62	34.32	–

Structure (SMILES)	Plate 1 (% inhibition) [3] [%]	Plate 1 (% conversion) [4] [%]	further results
CN1[C@@H]2CC[C@H]1C[C@@H](OC(c1ccccc1)c1ccccc1N)C2 (some centres unmarked) [Aminobenztropine]	-6.68	–	Plate 1 (% conversion): 38.12%
NN=C(N)N.NN=C(N)N.O=S(=O)(O)O [Aminoguanidine hemisulfate]	3.68	34.64	–
Cl.N=C(N)NN [Aminoguanidine hydrochloride]	-12.95	40.22	–
Cn1c(=O)c2[nH]cnc2n(C)c1=O.Cn1c(=O)c2[nH]cnc2n(C)c1=O.NCCN [Aminophylline ethylenediamine]	-9.00	38.90	–
Nc1nc(N)c2nc(CNc3ccc(C(=O)N[C@@H](CCC(=O)O)C(=O)O)cc3)cnc2n1 [Aminopterin]	-2.16	–	Plate 1 (% conversion): 36.60%
CCCCc1oc2ccccc2c1C(=O)c1cc(I)c(OCCN(CC)CC)c(I)c1 [Amiodarone hydrochloride]	32.10	–	–
CCN1CCCC1CNC(=O)c1cc(S(=O)(=O)CC)c(N)cc1OC (centres unmarked) [Amisulpride]	–	–	% conversion [2]: 40.99%; inhibition at 20 µM (LOPAC Plate 4, compound at 20 uM, read-out: % inhibition): -13.2%
CN(C)CCC=C1c2ccccc2CCc2ccccc21 [Amitriptyline hydrochloride]	-8.33	–	Plate 1 (% conversion): 38.67%
N.S=C(S)N1CCCC1 [Ammonium pyrrolidinedithiocarbamate]	–	–	% conversion [2]: 37.86%
Clc1ccc2c(c1)C(N1CCNCC1)=Nc1ccccc1O2 [Amoxapine]	-8.96	38.88	–
COc1cc(NS(C)(=O)=O)ccc1Nc1c2ccccc2nc2ccccc12 [Amsacrine hydrochloride]	-10.85	39.52	–
N=c1ccn2c(n1)O[C@H]1[C@H](O)[C@@H](CO)O[C@H]12 [Ancitabine hydrochloride]	-4.15	–	–
COc1ccc(C(=O)N2CCCC2=O)cc1 [Aniracetam]	–	–	Plate 1 (% conversion): 23.49%; Plate 1 (% inhibition): 36.86%
Cl.c1ccc(CN(CC2=NCCN2)c2ccccc2)cc1 [Antozoline hydrochloride]	-17.43	41.73	–
O=c1cc(-c2ccc(O)cc2)oc2cc(O)cc(O)c12 [Apigenin, reference compound]	95.84	3.68	inhibition at 20 µM (AspH activity, fixed compound concentration 20 μM, initial LOPAC screen, 0.5%v/v DMSO, read-out: Inhibition at 20 µM [%]): 95.8%
CN1CCc2cccc3c2[C@H]1Cc1ccc(O)c(O)c1-3 [Apomorphine hydrochloride hemihydrate]	80.27	8.92	–
CCN(CC)CCCN(c1ccccc1)C1Cc2ccccc2C1 [Aprindine hydrochloride]	–	–	% conversion [2]: 34.60%
Nc1nc2c(ncn2[C@@H]2O[C@H](CO)[C@@H](O)[C@@H]2O)c(=O)[nH]1.O [Ara-G hydrate]	–	–	% inhibition [1]: -11.19%; % conversion [2]: 40.29%
NC(N)=NCCCCN=C(N)N [Arcaine sulfate]	-5.14	37.60	–
C#CCOC(=O)C1=CCCN(C)C1 [Arecaidine propargyl ester hydrobromide]	–	–	Plate 1 (% conversion): 37.75%; Plate 1 (% inhibition): -5.59%
COC(=O)C1=CCCN(C)C1 [Arecoline hydrobromide]	–	–	Plate 1 (% conversion): 37.04%; Plate 1 (% inhibition): -3.47%
CC1CNc2c(cccc2S(=O)(=O)N[C@@H](CCCNC(=N)N)C(=O)N2CC[C@@H](C)C[C@@H]2C(=O)O)C1 (some centres unmarked) [Argatroban monohydrate]	-7.94	38.54	–
CO[C@H]1O[C@@H]2O[C@@]3(C)CC[C@H]4[C@H](C)CC[C@@H]([C@H]1C)[C@@]24OO3 [Artemether]	-9.16	38.95	–
CC1=C(/C=C/C(C)=C/C=C/C(C)=C/C=C/C=C(C)/C=C/C=C(C)/C=C/C2=C(C)C(=O)[C@@H](O)CC2(C)C)C(C)(C)C[C@H](O)C1=O [Astaxanthin]	-2.40	36.68	–
CC(C)c1c(C(=O)Nc2ccccc2)c(-c2ccccc2)c(-c2ccc(F)cc2)n1CC[C@@H](O)C[C@@H](O)CC(=O)O [Atorvastatin calcium salt trihydrate]	1.55	–	Plate 5 (% inhibition) (plate 5 (Pfitzer), test compounds at fixed 20 μM): 17.18%
C[N+]1(C)[C@@H]2CC[C@H]1C[C@@H](OC(=O)C(CO)c1ccccc1)C2 (some centres unmarked) [Atropine methyl bromide]	-14.40	40.71	–
